According to patent publication US20260364072A1, “METHODS FOR PROMOTING EXPANSION OF HUMAN CD34+ CELLS IN VIVO AND FOR PROMOTING NEURAL REGENERATION” (THE REGENTS OF THE UNIVERSITY OF CALIFORNIA, priority 2023, published 2026):

How the values were obtained:
[1] = test system: SF3B3; test: SF3B3 splice biomarker analysis in human CD45+ cells from normal HSPC engrafted mice; assay type: in vivo
Text: After completion of treatment and engraftment analyses of in vivo normal HSPC assays, total human hematopoietic cells (CD45^+) were selected for splice biomarker analyses to determine sensitivity of normal human hematopoietic cells to Rebecsinib compared with sAML LSC.
For quantitative analysis of splice isoform expression, RNA editing rates, and whole gene expression by qRT-PCR, cells or tissue fragments were harvested in RNA lysis buffer and total RNA was extracted using RNeasy mini or micro extraction kits (QIAGEN, Germantown, MD) following the manufacturer's protocol including a DNase incubation step to digest any trace genomic DNA present. Levels of ADAR1 variants and LSC-specific transcripts were quantified by qRT-PCR as previously described.^14 RNA-editing site-specific qRT-PCR (RESSqPCR) was performed for variants in AZIN1 transcripts.^53 Additional species-specific primers were also designed to quantify intron retention rates in cells treated with Rebecsinib as a biomarker of response to RNA splicing modulation. Specifically, for the two-step SYBR-green based assays, as previously described,^7,14,53 100-1000 ng of RNA were subjected to cDNA synthesis using the SUPERSCRIPT III™ (ThermoFisher Scientific) kit followed by qRT-PCR using SYBR GreenER (ThermoFisher Scientific) master mix according to the manufacturer's recommended procedures. qRT-PCR was performed using SYBR GREENER SUPER MIX™ (Life Technologies) on BioRad iQ5™, C1000 TOUCH™, or BioRad CFX384™ instruments. Human splice isoform-specific, RNA editing site-specific qPCR (RESSqPCR)^53. Primer sets that have not been previously published were designed and tested for efficiency followed by analyses in samples exposed to Rebecsinib, with species-specific HPRT primers used as controls. Samples with Ct<35 for the species-specific reference gene, HPRT, were included in analyses. Relative mRNA expression values were calculated using the 2^−ΔCT method, with normalization to untreated or vehicle-treated controls.^54 […]

[2] = Multi-species (rat, rabbit, NHP) pre-IND studies; assay type: in vivo
Procedure: […] Rat and rabbit studies included toxicology analyses, quantification of plasma levels of Rebecsinib, and necropsies to evaluate organ integrity after treatment. For NHP studies, health and ophthalmological evaluations were performed before and after dosing with Rebecsinib, and blood samples were collected for quantification of plasma levels of Rebecsinib and biomarker studies in PBMCs from treated and control animals. All monkeys were returned to the animal colony after the end of the observation period. Toxicokinetic values including mean plasma concentrations and t1/2 values were calculated according to CRO-approved protocols (Charles River and BASi).

[3] = test system: ADAR1p150 splice isoform; leukemia stem cells; details: cited from earlier work

## CC[C@H](OC)[C@@H](C)[C@H]1O[C@@H]1[C@@H](O)[C@H](C)/C=C/C=C(\C)[C@H]1OC(=O)C[C@H](O)CC[C@@](C)(O)[C@@H](OC(C)=O)/C=C/[C@@H]1C [Rebecsinib]
[1]; normal human CD45+ cells
  SF3B3 intron retention in bone marrow: no changes in SF3B3 intron retention
  SF3B3 intron retention in spleen: trend toward changes in the spleen that were not statistically significant
[1]; therapeutic index, humanized mouse models
  sensitivity of sAML LSC to splicing modulation versus normal HSPCs: sAML LSC are significantly more sensitive to splicing modulation than normal HSPCs
[2]
  systemic toxicity: no evidence of systemic toxicity
[2]; clinically tractable formulation
  bioavailability and stability: favorable bioavailability and stability
[2]; pre-IND studies
  tolerability in rat, rabbit, NHP: well tolerated
[2]; rat, rabbit, NHP
  splicing modulation: dose-dependent increases in splicing modulation
[3]
  activation of the interferon-inducible ADAR1p150 splice isoform: inhibit activation of the interferon-inducible ADAR1p150 splice isoform
  malignant splice isoform switching: reverse malignant splice isoform switching
[3]; in vitro and in preclinical patient-derived AML mouse models
  leukemia stem cell (LSC) maintenance: significantly reduce leukemia stem cell (LSC) maintenance
